Source: ChEMBL document CHEMBL1146889, “Homo-cysteinyl peptide inhibitors of the L1 metallo-beta-lactamase, and SAR as determined by combinatorial library synthesis” (Bioorg Med Chem Lett, 2006)
pKi: −log10 of the molar value.

Columns and labels:
[1] = target: Beta-lactamase L1 (Stenotrophomonas maltophilia) (UniProt P52700); test: Inhibition of Stenotrophomonas maltophilia L1 metallo beta lactamase at 200 uM
Beta-lactamase L1 = Beta-lactamase L1 (Stenotrophomonas maltophilia, UniProt P52700); test: Inhibition of Stenotrophomonas maltophilia L1 metallo beta lactamase
Beta-lactamase L1, sequence (P52700 whole entry): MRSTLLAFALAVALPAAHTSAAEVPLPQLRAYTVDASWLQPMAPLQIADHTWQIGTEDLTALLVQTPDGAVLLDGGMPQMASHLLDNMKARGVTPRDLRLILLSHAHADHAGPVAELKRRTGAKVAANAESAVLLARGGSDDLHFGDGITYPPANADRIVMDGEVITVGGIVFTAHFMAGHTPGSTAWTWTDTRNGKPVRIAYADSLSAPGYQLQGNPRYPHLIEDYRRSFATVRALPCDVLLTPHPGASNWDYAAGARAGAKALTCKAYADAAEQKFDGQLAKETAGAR

Beta-lactamase L1 (Stenotrophomonas maltophilia), sequence (P52700 34-290 limits assumed): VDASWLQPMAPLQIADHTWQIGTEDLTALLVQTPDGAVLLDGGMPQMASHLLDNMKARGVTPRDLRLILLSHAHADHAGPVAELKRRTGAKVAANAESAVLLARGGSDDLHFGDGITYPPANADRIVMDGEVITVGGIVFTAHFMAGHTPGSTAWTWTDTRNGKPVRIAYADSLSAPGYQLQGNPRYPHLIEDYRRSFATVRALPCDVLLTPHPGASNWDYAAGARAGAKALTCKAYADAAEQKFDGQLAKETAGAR

O=C(NC(CCS)C(=O)N[C@H](Cc1ccccc1)C(=O)O)c1cc2cc(O)ccc2[nH]1 (stereo partly drawn)
inhibition [1]: 81%
pKi (Beta-lactamase L1): 6.24

O=C(Cc1cc([N+](=O)[O-])ccc1Cl)NC(CCS)C(=O)N[C@H](Cc1ccccc1)C(=O)O (stereo partly drawn)
inhibition [1]: 81%
pKi (Beta-lactamase L1): 6.11

O=C(Cc1ccc(Br)cc1)NC(CCS)C(=O)N[C@H](Cc1ccccc1)C(=O)O (stereo partly drawn)
inhibition [1]: 81%
pKi (Beta-lactamase L1): 6.46

Cc1cc(C(=O)NC(CCS)C(=O)N[C@H](Cc2ccccc2)C(=O)O)cc(C)c1O (stereo partly drawn)
inhibition [1]: 81%
pKi (Beta-lactamase L1): 6.27

C[Si](C)(C)CCC(=O)NC(CCS)C(=O)N[C@H](Cc1ccccc1)C(=O)O (stereo partly drawn)
inhibition [1]: 81%
pKi (Beta-lactamase L1): 6.28

O=C(NC(CCS)C(=O)N[C@H](Cc1ccccc1)C(=O)O)c1cc2ccccc2[nH]1 (stereo partly drawn)
inhibition [1]: 81%
pKi (Beta-lactamase L1): 6.54

O=C(Cc1cccc([N+](=O)[O-])c1)NC(CCS)C(=O)N[C@H](Cc1ccccc1)C(=O)O (stereo partly drawn)
inhibition [1]: 81%
pKi (Beta-lactamase L1): 5.99

O=C(NC(CCS)C(=O)N[C@H](Cc1ccccc1)C(=O)O)c1cc2cc(F)ccc2[nH]1 (stereo partly drawn)
inhibition [1]: 81%
pKi (Beta-lactamase L1): 7.92

O=C(CCC1CCCCC1)NC(CCS)C(=O)N[C@H](Cc1ccccc1)C(=O)O (stereo partly drawn)
inhibition [1]: 81%
pKi (Beta-lactamase L1): 6.11
